Reference: patent publication US20260035364A1, “BICYCLIC TETRAHYDROTHIAZEPINE DERIVATIVES” (Hoffmann-La Roche Inc., priority 2022, published 2026)

Experiments:
primary human T-cells [1] = test: T-cell proliferation assay (CellTiter-Glo); type: cell-based; settings: Homo sapiens, T-cell, 120 h, CD3 condition; for Emax: 5 days, 20 μM reference compound A1 = 100%, read-out: Emax proliferation (% activation); for EC50: proliferation after 5 days, CellTiter-Glo, read-out: Tcell Proliferation CD3 EC50
Experimental: Expanded primary human T-cells are thawed and cultured in RPMI 1640 (Gibco, #61870-010)+5% human serum (HS, Sigma, #H3667)+1 mM Sodium Pyruvate (Gibco, #11360-039)+50 μM 2-mercaptoethanol (Gibco, #31350-010) and 1× Pen-Strep (Life Technologies, #15140122) medium at density of 2 Mio/ml for 3 hours in 5% CO2, 37° C. and 95% humidity. For coating of plates, PBS++ only or PBS++ with CD3 antibody (concentration depending on donor and determined by CD3 titrations) is added 100 μl/well to Poly-D Lysine coated 96-well plates. Plates are sealed and incubated at room temperature for 3 hours on a table-top rocking platform. After incubation, plates are washed once with PBS−− and filled with 40 μl/well culture medium only. Compounds are then added (see next section) to medium only plates. After 3 hours of culturing the T-cells, cells are filtered through a cell strainer (Miltenyi Biotech, #130-041-407), counted again and concentration is adjusted to 1.25 Mio/ml.
Cells are then seeded 80 μl/well to the 40 µl/well including dispensed compounds according to plate layout. By adding cells, compounds are further diluted 1:3, and resulting in 100k cells/120 µl/well. After 48 hours 40 μl of supernatant is collected carefully from the top while not disturbing the cells. Cells are assessed for proliferation 5 days later by measuring […] using CellTiterGlo (Promega).
(§1) Compounds were added in a 5 or 6 pt dose response with the Tecan D300e Digital Dispenser, all conditions 3 times more concentrated than the end-concentration, since cells are added afterwards (80p1 cells to 40p1 prepared medium with treatment). The DR was starting at 20 μM or 10 μM final top concentration and a dilution factor of 3.333. The positive control was the reference compound A1 that was added in a dose response as well, additionally to 3 wells of only 20 μM representing the positive stimulator control. All wells were normalized with DMSO to a final concentration of 0.6% (0.2% end-concentration).
After 5 days, for detection of ATP which is directly proportional to the number of cells present per well, the CellTiter-Glo® 2.0 Reagent is used. After visual control for toxicity or precipitations of the tested compounds, the plates are equilibrated to room temperature for 45 minutes. CellTiter-Glo® 2.0 Reagent is equilibrated to room temperature as well. After equilibration, an equal amount of CellTiter-Glo reagent is added to the cells (80 µl/well) with an electronic multichannel pipette. Plates are placed on a rocking platform for 15 minutes at room temperature. After incubation, the bottom of the plates is sealed with backing tape. Luminescence is measured with PHERAstar FSX (interval time 0.5 sec, gain 3000, focal height 15 mm) and exported as CSV file for analysis in Genedata screener.
Calculations and Data Reporting CD3 and PBS plates were analysed separately in Genedata Screener using Roche Normalization PCT_POS_CTRL with DMSO set as Neutral Control and 20 μM of the reference compound A1 set as Stimulator Control/100%.
For CD3 conditions EC50 and Emax of the fitted sigmoidal curve were reported. If no curve could be fitted, the EC50 was reported as blank field and the Emax was based on individual data points. […] Compounds which activate unstimulated cells (see IL2 measurements) or compounds which negatively affected viability were flagged.

primary human T-cells [2] = test: IL2 secretion measurements in CD3-stimulated T-cells; type: cell-based; settings: Homo sapiens, T-cell, 24 h, CD3 condition; for Emax: IL2 after 24 hours, 20 μM reference compound A1 = 100%, read-out: Emax IL2 (% activation); for EC50: IL2 secretion after 24 hours, read-out: Tcell IL2 CD3 EC50
Experimental: As readouts for T-cell activation, IL2 secretion after 24 hours and proliferation after 5 days was measured. Increases in IL2 secretion and proliferation upon compound treatment were assessed as the % of the maximum of reference compound A1. WO 2016/139181 discloses reference compound A1 as example 70. As a counter screen and to make sure that no unwanted TCR-independent activation was triggered, PBS conditions were run for all compounds.
Expanded primary human T-cells were thawed and cultured in RPMI 1640 (Gibco, #61870-010)+5% human serum (HS, Sigma, #H3667)+1 mM Sodium Pyruvate (Gibco, #11360-039)+50 μM 2-mercaptoethanol (Gibco, #31350-010) and 1× Pen-Strep (Life Technologies, #15140122) medium at density of 2 Mio/ml for 3 hours in 5% CO2, 37° C. and 95% humidity. For coating of plates, […] or PBS++ with CD3 antibody (concentration depending on donor and determined by CD3 titrations) was added 100 μl/well to Poly-D Lysine coated 96-well plates. Plates were sealed and incubated at room temperature for 3 hours on a table-top rocking platform. After incubation, plates were washed once with PBS−− and filled with 40 μl/well culture medium only. Compounds were then added (see next section) to medium only plates. After 3 hours of culturing the T-cells, cells were filtered through a cell strainer (Miltenyi Biotech, #130-041-407), counted again and concentration was adjusted to 1.25 Mio/ml.
Cells were then seeded 80 μl/well to the 40 μl/well including dispensed compounds according to plate layout. By adding cells, compounds were further diluted 1:3, and resulting in 100k cells/120 µl/well. After 24 hours 40 μl of supernatant was collected carefully from the top while not disturbing the cells and transferred into a round bottom 96 well plate. Collected and frozen supernatant was used for detection of IL2 using the IL-2 Human ProQuantum Immunoassay Kit (Invitrogen) or using the Human IL-2 ELISA Kit (Thermo Fisher).
as §1, with “Compound Treatment Compounds” for “Compounds”
The immunoassay is done following the manufacturer's manual (Invitrogen, #A35603).
Additional information: For the immunoassay, MicroAmp™ EnduraPlate™ Optical 384-Well plates are used. Frozen supernatant is thawed and centrifuged for 5 minutes at 1000×g, both steps at 4° C. After centrifugation, required sample amount is taken from the top, and in a separate LightCycler V-bottom plate (working plate) diluted with assay dilution buffer, dilution factor depending on the PBS or CD3 condition but at least 1:3. IL-2 standard and blanks are prepared in the same V-bottom plate, standard with a range of 0.0128-5000 pg/ml (extended version). After preparation, 5 μl of sample dilutions or standard/blanks are transferred to the optical 384-well plate (assay plate) and the 10 μl reaction protocol is being followed. For measurement, the QuantStudio 12K Flex system is used. Raw data is extracted and IL-2 concentrations are calculated with the Thermo Fisher online app (apps.thermofisher.com/apps/proquantum).
ELISA is done following the manufacturer's manual (Thermo Fisher Scientific, #88-7025-88). Additional information: For the ELISA Nunc MaxiSorp 96 well plates are used. Frozen supernatant is thawed and centrifuged for 5 minutes at 1000×g, both steps at 4° C. […]

DGKalpha = DGKalpha (Homo sapiens, UniProt P23743); test: In vitro DGK inhibition assay (ADP-Glo, liposomes), DGKalpha; type: biochemical; parameters: hDGKalpha(1-735)-N-His; His (N); made in house; host or cells: Sf21 insect cells (baculovirus); settings: 4 nM DGK α, 25 μM ATP, 125 uM DLG in liposomes, 1 hour reaction
Chain of DGKalpha (P23743 whole entry): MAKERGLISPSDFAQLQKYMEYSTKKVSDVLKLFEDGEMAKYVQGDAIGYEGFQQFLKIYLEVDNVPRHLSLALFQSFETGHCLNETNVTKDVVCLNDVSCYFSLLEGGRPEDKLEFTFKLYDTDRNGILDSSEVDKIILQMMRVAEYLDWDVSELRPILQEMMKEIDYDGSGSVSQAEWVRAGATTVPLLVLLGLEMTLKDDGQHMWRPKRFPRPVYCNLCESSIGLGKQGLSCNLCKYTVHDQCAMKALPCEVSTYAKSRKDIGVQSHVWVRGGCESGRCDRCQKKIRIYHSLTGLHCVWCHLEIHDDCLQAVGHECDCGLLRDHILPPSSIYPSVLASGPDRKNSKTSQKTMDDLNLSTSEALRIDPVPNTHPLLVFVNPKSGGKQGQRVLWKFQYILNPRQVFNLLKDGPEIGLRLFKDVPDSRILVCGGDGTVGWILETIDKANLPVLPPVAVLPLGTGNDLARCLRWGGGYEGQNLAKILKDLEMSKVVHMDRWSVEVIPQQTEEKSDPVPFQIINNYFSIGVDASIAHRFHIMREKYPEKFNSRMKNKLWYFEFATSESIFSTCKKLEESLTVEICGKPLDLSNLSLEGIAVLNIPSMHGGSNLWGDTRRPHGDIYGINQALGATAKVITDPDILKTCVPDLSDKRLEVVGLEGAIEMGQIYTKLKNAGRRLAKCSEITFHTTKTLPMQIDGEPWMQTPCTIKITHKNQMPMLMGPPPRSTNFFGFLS
Experimental: (§2) DGK α and ζ kinases use ATP to phosphorylate the substrate 1,2-dilauroyl-sn-glycerol (DLG, incorporated in the liposomes). ATP is converted to ADP as a result of this enzymatic reaction. After the kinase reaction, an ATP-depletion reagent is added to terminate the kinase reaction and deplete any remaining ATP, leaving only ADP. Second, a detection reagent is added to simultaneously convert ADP to ATP and allow the newly synthesized ATP to be converted to light using a coupled luciferase/luciferin reaction.
Full length DGKA and Z were expressed in Sf21 insect cells by infecting the cells with the baculovirus stock at MOI of 2. Purification of both enzymes was performed as previously described by Takahashi et al., PeerJ, 2018 (Takahashi, D.; Sakane, F. Expression and purification of human diacylglycerol kinase alpha from baculovirus-infected insect cells for structural studies. PeerJ 2018, 6, No. e5449).
(§3) A concentrated liposome solution was prepared in assay buffer without DTT and BSA: 2 mM of DLG in 21 mM of total liposome (2 mM DLG/8 mM PS/11 mM PC). The reaction mixtures contain the assay buffer with a final DLG concentration of 125 uM ATP concentrations of 25 μM (for DGKA assay) or 50 μM (for DGKZ assay). The reactions were started by addition of DGK a and (kinases at 4 nM and 2 nM final concentrations, respectively. After 1 hour reaction, the amount of ADP formed was detected with the ADP-Glo kinase assay (Promega) according to the manufacturer instructions. Compounds were added in 11-points dose response, starting at […], 1:3 dilutions, with a final DMSO concentration of 2%. The multidrop combi was used as a liquid handler and luminescence was read with 0.5 s by the envision reader (PE).

DGKzeta = DGKzeta (Homo sapiens, UniProt Q13574); test: In vitro DGK inhibition assay (ADP-Glo, liposomes), DGKzeta; type: biochemical; parameters: hDGKzeta(1-928)-N-His; His (N); made in house; host or cells: Sf21 insect cells (baculovirus); settings: 2 nM DGK ζ, 50 μM ATP, 125 uM DLG in liposomes, 1 hour reaction
Chain of DGKzeta (Q13574 whole entry): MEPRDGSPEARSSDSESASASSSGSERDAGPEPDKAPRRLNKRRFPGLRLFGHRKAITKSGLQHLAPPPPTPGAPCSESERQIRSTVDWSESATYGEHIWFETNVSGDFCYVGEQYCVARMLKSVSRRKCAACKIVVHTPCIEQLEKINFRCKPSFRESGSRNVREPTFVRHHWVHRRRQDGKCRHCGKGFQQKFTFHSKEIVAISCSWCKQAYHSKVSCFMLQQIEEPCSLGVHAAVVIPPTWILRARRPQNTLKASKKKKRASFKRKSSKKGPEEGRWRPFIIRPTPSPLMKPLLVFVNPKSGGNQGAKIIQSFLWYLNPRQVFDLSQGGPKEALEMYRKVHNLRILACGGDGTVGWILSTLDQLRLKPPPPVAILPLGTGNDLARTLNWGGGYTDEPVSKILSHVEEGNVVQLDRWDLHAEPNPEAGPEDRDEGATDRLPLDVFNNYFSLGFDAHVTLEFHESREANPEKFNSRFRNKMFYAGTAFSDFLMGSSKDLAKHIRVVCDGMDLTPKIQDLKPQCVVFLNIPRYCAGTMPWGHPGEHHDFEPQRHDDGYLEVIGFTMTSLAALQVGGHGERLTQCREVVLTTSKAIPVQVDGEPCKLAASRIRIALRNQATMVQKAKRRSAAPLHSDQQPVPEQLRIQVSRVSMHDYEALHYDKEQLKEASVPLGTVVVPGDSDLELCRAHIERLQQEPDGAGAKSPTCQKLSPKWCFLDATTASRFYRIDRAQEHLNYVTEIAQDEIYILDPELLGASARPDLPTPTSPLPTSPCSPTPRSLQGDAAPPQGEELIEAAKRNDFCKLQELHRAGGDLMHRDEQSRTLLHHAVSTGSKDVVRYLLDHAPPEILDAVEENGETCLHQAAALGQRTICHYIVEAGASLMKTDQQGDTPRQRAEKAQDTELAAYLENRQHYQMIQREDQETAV
Experimental: as §2
Purification of both enzymes was performed as previously described by Takahashi et al., PeerJ, 2018 (Takahashi, D.; Sakane, F. Expression and purification of human diacylglycerol kinase alpha from baculovirus-infected insect cells for structural studies. PeerJ 2018, 6, No. e5449).
as §3

Row | Compound | EC50 (primary human T-cells [2]) [µM] | IC50 (DGKalpha) [µM] | IC50 (DGKzeta) [µM] | Emax (primary human T-cells [1]) [%] | Emax (primary human T-cells [2]) [%] | EC50 (primary human T-cells [1]) [µM]
1 | CC(C)(c1nnc(-c2ccc3c(c2)N(Cc2ccc(COc4ccccc4)cc2)C(=O)[C@@H](N)CS3(=O)=O)o1)S(C)(=O)=O [Example 8, (3R)-3-amino-7-[5-(1-methyl-1-methylsulfonyl-ethyl)-1,3,4-oxadiazol-2-yl]-1,1-dioxo-5-[[4-(phenoxymethyl)phenyl]methyl]-2,3-dihydro-1λ6,5-benzothiazepin-4-one] |  |  |  | 174 | 177 | 
2 | CC(C)(c1nnc(-c2ccc3c(c2)N(Cc2ccc(OCc4cccc(F)c4)cc2)C(=O)[C@@H](N)CS3(=O)=O)o1)S(C)(=O)=O [Example 13, (3R)-3-amino-5-[[4-[(3-fluorophenyl)methoxy]phenyl]methyl]-7-[5-(1-methyl-1-methylsulfonyl-ethyl)-1,3,4-oxadiazol-2-yl]-1,1-dioxo-2,3-dihydro-1λ6,5-benzothiazepin-4-one] | 1.3 |  |  | 92 | 181 | 1.14
3 | CC(C)N(C)c1ccc(CN2C(=O)[C@@H](N)CS(=O)(=O)c3ccc(-c4nnc(C(C)(C)S(C)(=O)=O)o4)cc32)cc1 [Example 18, (3R)-3-amino-5-[[4-[isopropyl(methyl)amino]phenyl]methyl]-7-[5-(1-methyl-1-methylsulfonyl-ethyl)-1,3,4-oxadiazol-2-yl]-1,1-dioxo-2,3-dihydro-126,5-benzothiazepin-4-one] | > 10 |  |  | 63 | 46 | 6.35

Now from value to compound, other results behind:

Row | EC50 (primary human T-cells [2]) [µM] | IC50 (DGKalpha) [µM] | IC50 (DGKzeta) [µM] | Compound | Emax (primary human T-cells [1]) [%] | Emax (primary human T-cells [2]) [%] | EC50 (primary human T-cells [1]) [µM]
4 | 0.566 |  |  | CC(C)(c1nnc(-c2cc3c(cc2F)S(=O)(=O)C[C@H](N)C(=O)N3Cc2ccc(-c3ccc(C(F)(F)F)cn3)cc2)o1)S(C)(=O)=O [Example 25, (3R)-3-amino-8-fluoro-7-[5-(1-methyl-1-methylsulfonyl-ethyl)-1,3,4-oxadiazol-2-yl]-1,1-dioxo-5-[[4-[5-(trifluoromethyl)-2-pyridyl]phenyl]methyl]-2,3-dihydro-1λ6,5-benzothiazepin-4-one] |  | 244 | 
5 | 0.185 | 1.16 | 0.573 | CC(C)(c1nnc(-c2cc3c(cc2F)S(=O)(=O)C[C@H](N)C(=O)N3Cc2ccc(-c3noc(C(F)(F)F)n3)cc2)o1)S(C)(=O)=O [Example 28, (3R)-3-amino-8-fluoro-7-[5-(1-methyl-1-methylsulfonyl-ethyl)-1,3,4-oxadiazol-2-yl]-1,1-dioxo-5-[[4-[5-(trifluoromethyl)-1,2,4-oxadiazol-3-yl]phenyl]methyl]-2,3-dihydro-1λ6,5-benzothiazepin-4-one] |  | 307 | 
